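Growth conditions: 96-well plates. Treatment: test compound, 48 hours, 5 concentrations. Analysis: linear interpolation between bracketing concentrations; unreached endpoints set to highest concentration. Here, GI50 denotes the concentration required for 50% inhibition of growth.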 Calls of active or inactive are those of the source. No stated cut-off is given here; in the data, active = GI50 up to about 1.1 µM and inactive = higher.
Key:
Assay in all cases: DTP human tumour cell line panel, 48 h
RPMI-8226 = tested on: RPMI-8226
SN12C = tested on: SN12C
TK-10 = tested on: TK-10
SK-MEL-28 = tested on: SK-MEL-28
KM12 = tested on: KM12
OVCAR-4 = tested on: OVCAR-4
Malme-3M = tested on: Malme-3M
OVCAR-8 = tested on: OVCAR-8
M14 = tested on: M14
K562 = tested on: K562
UO-31 = tested on: UO-31
SF-539 = tested on: SF-539
SF-268 = tested on: SF-268
MOLT-4 = tested on: MOLT-4
SR = tested on: SR
A498 = tested on: A498
SNB-75 = tested on: SNB-75
OVCAR-3 = tested on: OVCAR-3
UACC-62 = tested on: UACC-62
EKVX = tested on: EKVX

Row | SMILES | GI50 (RPMI-8226) | GI50 (SN12C) | GI50 (TK-10) | GI50 (SK-MEL-28) | GI50 (KM12) | GI50 (OVCAR-4) | GI50 (Malme-3M) | GI50 (OVCAR-8) | GI50 (M14) | GI50 (K562) | GI50 (UO-31) | GI50 (SF-539) | GI50 (SF-268) | GI50 (MOLT-4) | GI50 (SR) | GI50 (A498) | GI50 (SNB-75) | GI50 (OVCAR-3) | GI50 (UACC-62) | GI50 (EKVX)
1 | C=C=C(Sc1ccccc1)C(C)(C)OC(C)=O | 30.7 µM (inactive) | 16.2 µM (inactive) | 32.5 µM (inactive) | 17.1 µM (inactive) | 16 µM (inactive) | 31.2 µM (inactive) | 18.3 µM (inactive) | 20.2 µM (inactive) | 17.4 µM (inactive) | 22.1 µM (inactive) | 14.2 µM (inactive) | 16.1 µM (inactive) | 13.9 µM (inactive) | 34.5 µM (inactive) | 27.9 µM (inactive) | 19 µM (inactive) | 21.2 µM (inactive) | 16.3 µM (inactive) | 14.3 µM (inactive) | 
2 | CN1C(=O)N(C)C2(CCN(CC(CC3OCCO3)c3ccc(F)cc3)CC2)C1=O (stereo unspecified) | > 100 µM (inactive) | > 100 µM (inactive) | > 100 µM (inactive) | > 100 µM (inactive) |  | > 100 µM (inactive) | > 100 µM (inactive) | > 100 µM (inactive) | > 100 µM (inactive) | > 100 µM (inactive) | > 100 µM (inactive) | > 100 µM (inactive) | > 100 µM (inactive) | > 100 µM (inactive) | > 100 µM (inactive) | > 100 µM (inactive) | > 100 µM (inactive) | > 100 µM (inactive) | > 100 µM (inactive) | > 100 µM (inactive)
3 | N#CC1(C#N)C(c2ccccc2)NC23CCCCC2C1(C#N)C(=O)N3 (stereo unspecified) | > 100 µM (inactive) | > 100 µM (inactive) |  | > 100 µM (inactive) | > 100 µM (inactive) | > 100 µM (inactive) | > 100 µM (inactive) | > 100 µM (inactive) | > 100 µM (inactive) | > 100 µM (inactive) | > 100 µM (inactive) | > 100 µM (inactive) | > 100 µM (inactive) | > 100 µM (inactive) | 57.8 µM (inactive) | > 100 µM (inactive) | > 100 µM (inactive) | > 100 µM (inactive) | > 100 µM (inactive) | > 100 µM (inactive)
4 | O=C(CCc1ccc(O)cc1)NCCc1cccc(O)c1 |  | > 50 µM (inactive) | > 50 µM (inactive) | > 50 µM (inactive) | > 50 µM (inactive) | > 50 µM (inactive) | > 50 µM (inactive) | > 50 µM (inactive) | > 50 µM (inactive) | > 50 µM (inactive) | > 50 µM (inactive) | > 50 µM (inactive) | > 50 µM (inactive) | > 50 µM (inactive) | > 50 µM (inactive) | > 50 µM (inactive) | 0.005 µM (active) | > 50 µM (inactive) | > 50 µM (inactive) | > 50 µM (inactive)

From ChEMBL document CHEMBL1201862, “PubChem BioAssay data set” (2004)
